This passage reports IC50 results from patent US7393845B2 (H. Lundbeck A/S, priority 2001, dated 2008).

pIC50: −log10 of the molar value. Where only a bound is given, the exact number is not on record here.

One assay deals with T1, human 5-HT1A receptors (Homo sapiens, UniProt P08908).
T1 construct: expressed in transfected cells; cell homogenate
T1 sequence (P08908 1-422): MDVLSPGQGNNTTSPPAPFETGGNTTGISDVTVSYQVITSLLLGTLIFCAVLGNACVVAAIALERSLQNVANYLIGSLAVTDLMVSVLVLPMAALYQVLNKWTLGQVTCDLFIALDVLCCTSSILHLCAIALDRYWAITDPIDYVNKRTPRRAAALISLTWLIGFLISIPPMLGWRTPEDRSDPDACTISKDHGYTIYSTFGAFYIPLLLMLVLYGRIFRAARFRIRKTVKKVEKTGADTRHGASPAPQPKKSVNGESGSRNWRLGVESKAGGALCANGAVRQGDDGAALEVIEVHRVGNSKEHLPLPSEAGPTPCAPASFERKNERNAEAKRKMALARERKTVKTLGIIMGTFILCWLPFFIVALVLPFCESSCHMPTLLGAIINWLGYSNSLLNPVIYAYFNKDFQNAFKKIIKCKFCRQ
The assay can be described thus: Inhibition of 3H-5-CT binding to human 5-HT1A receptors.
Conditions: not given
Here is the method: The affinity of the compounds of the invention to 5-HT1A receptors was determined by measuring the inhibition of binding of a radioactive ligand at 5-HT1A receptors as described in the following test:
Inhibition of ^3H-5-CT Binding to Human 5-HT1A Receptors.
By this method the inhibition by drugs of the binding of the 5-HT1A agonist ^3H-5-carboxamido tryptamine (^3H-5-CT) to cloned human 5-HT1A receptors stably expressed in transfected HeLa cells (HA7) (Fargin, A. et al. J. Biol. Chem. 1989, 264, 14848) is determined in vitro. The assay was performed as a modification of the method described by Harrington, M. A. et al. J. Pharmacol. Exp. Ther. 1994, 268, 1098. Human 5-HT1A receptors (40 μg of cell homogenate) were incubated for 15 minutes at 37° C. in 50 mM Tris buffer at pH 7.7 in the presence of ^3H-5-CT. Non-specific binding was determined by including 10 μM of metergoline. The reaction was terminated by rapid filtration through Unifilter GF/B filters on a Tomtec Cell Harvester. Filters were counted in a Packard Top Counter.
The term pIC50 denotes the IC50 on a negative log10 scale, so that one unit is a factor of ten. Consider `N#Cc1cccnc1SCCN1CCN(c2cccc3c2OCCO3)CC1` [Compound 2a], for which the negative logarithm of the IC50 (pIC50) was over 6.52.

Staying with this assay, now noted: cloned human 5-HT1A receptors in HeLa cells (HA7), 15 minutes at 37° C., pH 7.7; read-out: IC50, inhibition of 3H-5-CT binding to human 5-HT1A receptors.
Regarding `Cc1cc(C(F)(F)F)c(C#N)c(SCCN2CCN(c3cccc4c3OCCO4)CC2)n1` [Compound 1b, 2-{2-[4-(2,3-Dihydrobenzo[1,4]dioxin-5-yl)piperazin-1-yl]ethylsulfanyl}-6-methyl-4-trifluoromethylnicotinonitrile], the negative-log IC50 (pIC50) was over 6.52.

For the molecule `Cc1cc(C)c(C#N)c(SCCN2CCN(c3cc(Cl)cc4c3OCC(=O)N4)CC2)n1` [Compound 2aa, 2-[2-[4-(6-Chloro-2,3-dihydro-1,4-benzoxazin-3-on-8-yl)piperazin-1-yl]ethylsulfanyl]-4,6-dimethylnicotinonitrile], the pIC50 was over 6.52.

For the molecule `N#Cc1cccnc1SCCN1CCN(c2cc(Cl)cc3c2OCCN3)CC1` [Compound 2ah, 2-[2-[4-(6-Chloro-2,3-dihydro-1,4-benzoxazin-8-yl)piperazin-1-yl]ethylsulfanyl]nicotinonitrile], the pIC50 is over 6.52.

Take `Cc1cc(C)c(C#N)c(SCCN2CCN(c3cc(Cl)cc4c3OCCN4)CC2)n1` [Compound 2ai, 2-[2-[4-(6-Chloro-2,3-dihydro-1,4-benzoxazin-8-yl)piperazin-1-yl]ethylsulfanyl]-4,6-dimethylnicotinonitrile]: the negative-log IC50 (pIC50) is over 6.52.

For the molecule `Cc1cc(Cl)nc(SCCN2CCN(c3cc(Cl)cc4c3OCCN4)CC2)c1C#N` [Compound 2aj, 6-Chloro-2-[2-[4-(6-chloro-2,3-dihydro-1,4-benzoxazin-8-yl)piperazin-1-yl]ethylsulfanyl]-4-methylnicotinonitrile], the pIC50 was over 6.52.

Consider `Cc1cc(N2CCCCC2)nc(SCCN2CCN(c3ccc(C#N)c4c3OCCO4)CC2)c1C#N` [Compound 2c, 2-{2-[4-(8-Cyano-2,3-dihydrobenzo[1,4]dioxin-5-yl)piperazin-1-yl]ethylsulfanyl}-4-methyl-6-(piperidin-1-yl)nicotinonitrile], for which the pIC50 is over 6.52.

On to `Cc1cc(C)c(S(=O)(=O)c2ccccc2)c(SCCN2CCN(c3cccc4c3OCCO4)CC2)n1` [Compound 2l, 2-{3-[4-(2,3-Dihydrobenzo[1,4]dioxin-5-yl)piperazin-1-yl]ethylsulfanyl}-4,6-dimethyl-3-phenylsulfonylpyridine], for which the pIC50 was over 6.52.

Turning to `Cc1cc(Cl)nc(SCCN2CCN(c3cccc4c3OCCO4)CC2)c1C#N` [Compound 2o, 6-Chloro-2-{3-[4-(2,3-dihydrobenzo[1,4]dioxin-5-yl)piperazin-1-yl]ethylsulfanyl}-4-methylnicotinonitrile], the pIC50 is over 6.52.

Turning to `Cc1cc(C)c(C#N)c(SCCN2CCN(c3ccc(C#N)c4c3OCCO4)CC2)n1` [Compound 2s, 2-{3-[4-(8-Cyano-2,3-dihydrobenzo[1,4]dioxin-5-yl)piperazin-1-yl]ethylsulfanyl}-4,6-dimethylnicotinonitrile], the negative-log IC50 (pIC50) is over 6.52.

As to `Cc1nc(SCCN2CCN(c3ccc(C#N)c4c3OCCO4)CC2)c(C#N)c(C)c1Cl` [Compound 2u, 5-Chloro-2-{3-[4-(8-cyano-2,3-dihydrobenzo[1,4]dioxin-5-yl)piperazin-1-yl]ethylsulfanyl}-4,6-dimethylnicotinonitrile], the pIC50 is over 6.52.

Turning to `N#Cc1cccnc1SCCN1CCN(c2cc(Cl)cc3c2OCC(=O)N3)CC1` [Compound 2z, 2-[2-[4-(6-Chloro-2,3-dihydro-1,4-benzoxazin-3-on-8-yl)piperazin-1-yl]ethylsulfanyl]nicotinonitrile], the pIC50 was over 6.52.

The next assay concerns the target T2, cloned 5-HT1A receptors (Homo sapiens, UniProt P08908).
T2 construct: expressed in transfected cells
T2 sequence (P08908 1-422): T1 sequence (P08908 1-422)
Kind of assay: 5-HT1A antagonistic activity: antagonism of 5-HT induced inhibition of forskolin induced cAMP accumulation in transfected HeLa cells (HA7). It counts as cell-based.
Conditions: not given
Here is the method: The 5-HT1A antagonistic activity of some of the compounds of the invention has been estimated in vitro at cloned 5-HT1A receptors stably expressed in transfected HeLa cells (HA7). In this test, 5-HT1A antagonistic activity is estimated by measuring the ability of the compounds to antagonize the 5-HT induced inhibition of forskolin induced cAMP accumulation. The assay was performed as a modification of the method described by Pauwels, P. J. et al. Biochem. Pharmacol. 1993, 45, 375.
A general note: cAMP levels reflect the balance of adenylyl cyclase and phosphodiesterase activity.
Molecule `Cc1cc(C(F)(F)F)c(C#N)c(SCCN2CCN(c3cccc4c3OCCO4)CC2)n1` [Compound 1b, 2-{2-[4-(2,3-Dihydrobenzo[1,4]dioxin-5-yl)piperazin-1-yl]ethylsulfanyl}-6-methyl-4-trifluoromethylnicotinonitrile] gave a pIC50 of over 5.15.

For the molecule `Cc1ccc(C#N)c(SCCN2CCN(c3ccc(C#N)c4c3OCCO4)CC2)n1` [Compound 1e, {2-[4-(8-Cyano-2,3-dihydrobenzo[1,4]dioxin-5-yl)piperazin-1-yl]ethylsulfanyl}-6-methylnicotinonitrile], the pIC50 is over 5.15.

On to `N#Cc1ccc(N2CCN(CCCSc3ccc(C(F)(F)F)cn3)CC2)c2c1OCCO2` [Compound 1v, 2-{3-[4-(8-Cyano-2,3-dihydrobenzo[1,4]dioxin-5-yl)piperazin-1-yl]propylsulfanyl}-5-trifluoromethylpyridine], for which the pIC50 is over 5.15.
